The values below come from patent publication US20240239849A1, “PEPTIDE ENTITIES WITH ANTIMICROBIAL ACTIVITY AGAINST MULTI-DRUG RESISTANT PATHOGENS” (CENTRO DE INVESTIGACIÓN Y DESARROLLO DE MEDICAMENTOS. CIDEM, priority 2020, published 2024).

The test system of experiment [1] is K. pneumoniae (multi-resistant clinical isolate). Put plainly: checkerboard test, Meropenem/peptide combinations. The experiment is classed as cell-based, Klebsiella pneumoniae. Particulars: meropenem alone, denominator of FICA. The protocol:
(§1) Only strains from clinical isolates of Gram-negative bacteria Klebsiella pneumoniae and Gram-positive Staphylococcus aureus multiresistant to antibiotics were chosen to carry out the combination tests between the peptides. The experiments were carried out according to the methodology of the test described as “checkerboard” or checkerboard [Huang, R.-y., et al., Isobologram Analysis: A Comprehensive Review of Methodology and Current Research. Frontiers in Pharmacology, 2019. 10: p. 1222] This test allows the determination of the fractional inhibitory concentration index (FICI) following Equation 3, which establishes the classification of the effects obtained as follows: synergy (FICI≤0.5), additive (0.5<FICI≤ 1), indifferent (1<FICI≤2) and antagonism (FICI>2).
(§2) Where: MICA: minimum inhibitory concentration of compound A; MICB: minimum inhibitory concentration of compound B; MICAB: minimum concentration of A that combined with B inhibits growth; MICBA: minimum concentration of B that combined with A inhibits growth. The checkerboard experiment was performed in sterile 96-well polypropylene plates (Eppendorf, Germany). Isolated colonies of each bacterium were used to create 1×10^5 CFU bacterial cultures in PBS, referred to as a working culture. In addition, 64 μM stock solutions of the peptides were prepared in PBS. Two-fold dilutions in PBS of each peptide were made in 50 μL final volume. […]

For experiment [2], the system named is S. aureus (multi-resistant clinical isolate). Put plainly: checkerboard test, Meropenem/peptide combinations. Particulars: meropenem alone, denominator of FICA. It is filed as cell-based, Staphylococcus aureus. The protocol:
as §1, §2

As to `C[C@@H](O)[C@H]1C(=O)N2C(C(=O)O)=C(S[C@@H]3CN[C@H](C(=O)N(C)C)C3)[C@H](C)[C@H]12` [MER, Meropenem, reference compound], the “MICA (minimum inhibitory concentration of compound A)” value in experiment [1] and in experiment [2] was 8.0 µg/mL in each case.
